Test results taken from EPA's ToxValDB 9.5 (doi:10.2903/j.efsa.2016.4569).
≈ marks a conversion by molar mass, not a printed value.

Tests used:
Oncorhynchus mykiss = settings: acute; duration: 96 hours; mortality
Rattus norvegicus = settings: for LD50: acute, mortality
Tagia sp. = settings: for LC50: acute, mortality; for NOEC: chronic/long-term, reproduction
Aphidius rhopalosiphi = assay: LR50; higher = less toxic; settings: not reported; mortality
Lepomis macrochirus = settings: chronic/long-term; other
Daphnia magna = settings: chronic/long-term; duration: 21 days; reproduction
Apis mellifera = settings: acute, mortality
Oryctolagus sp. = settings: chronic; other
Folsomia candida = settings: chronic/long-term; reproduction
[1] = short-term, duration: 28 days, M

SMILES: Cc1n[nH]c(=O)n1C(F)F
- LC50 (Oncorhynchus mykiss): > 100 µg/mL
- NOAEL (Rattus norvegicus; subchronic, duration: 90 days, M): 0.666 mg/kg-day
- LC50 (Tagia sp.): > 100 mg/kg

SMILES: CCOC(=O)C(Cl)Cc1cc(-n2nc(C)n(C(F)F)c2=O)c(F)cc1Cl (configuration not stated) [Carfentrazone-ethyl]
- LR50 (Aphidius rhopalosiphi): 23.5 g/ha
- NOEC (Lepomis macrochirus): 0.0187 mg/L
- NOEC (Daphnia magna): 0.22 mg/L
- LC50 (Oncorhynchus mykiss): 1.6 µg/mL (≈ 3.88 µM)
- LD50 (Apis mellifera; dermal): > 81 µg/piece
- LD50 (Apis mellifera; oral, unspecified): > 81 µg/piece
- LD50 (Rattus norvegicus; F): > 5140 mg/kg-day
- LD50 (Rattus norvegicus; oral, M): > 5000 mg/kg
- NOAEL (Rattus norvegicus; subchronic, duration: 90 days, oral, hematological): 58 mg/kg-day
- LD50 (Colinus virginianus; acute, oral, mortality): > 2250 mg/kg-day
- NOEC (Colinus virginianus; chronic): 94 mg/kg-day
- NOAEL (Oryctolagus sp.): 40 mg/kg-day
- LC50 (Tagia sp.): > 410 mg/kg
- NOEC (Tagia sp.): 8 mg/kg
- NOEC (Folsomia candida): 0.975 mg/kg

SMILES: Cc1nn(-c2cc(CC(C(=O)O)S(=O)(=O)O)c(Cl)cc2F)c(=O)n1C(F)F (stereo not drawn) [F8426-alpha-Sulfodeschloropropionic acid]
- LC50 (Oncorhynchus mykiss): > 100 µg/mL
- NOAEL (Rattus norvegicus; [1]): 0.359 mg/kg-day
- LC50 (Tagia sp.): > 100 mg/kg

SMILES: Cc1nn(-c2cc(CCC(=O)O)c(Cl)cc2F)c(=O)n1C(F)F
- NOAEL (Rattus norvegicus; short-term, M): 1.4 mg/kg-day
- LC50 (Tagia sp.): > 1000 mg/kg

SMILES: O=C(O)c1cc(-n2nc(CO)n(C(F)F)c2=O)c(F)cc1Cl
- LC50 (Oncorhynchus mykiss): > 100 µg/mL
- NOAEL (Rattus norvegicus; [1]): 10.1 mg/kg-day
- NOEC (Tagia sp.): 0.056 mg/kg

SMILES: Cc1nn(-c2cc(C(=O)O)c(Cl)cc2F)c(=O)n1C(F)F
- LC50 (Oncorhynchus mykiss): > 92.5 µg/mL
- NOAEL (Rattus norvegicus; [1]): 5.4 mg/kg-day
- LC50 (Tagia sp.): > 1000 mg/kg

SMILES: O=C(O)CCc1cc(-n2nc(CO)n(C(F)F)c2=O)c(F)cc1Cl [3-Hydroxymethyl-F8426-propionic acid]
- NOAEL (Rattus norvegicus; [1]): 1.4 mg/kg-day

SMILES: COc1cc(-n2nc(C)n(C(F)F)c2=O)c(F)cc1Cl
- LC50 (Oncorhynchus mykiss): > 20.9 µg/mL
- NOAEL (Rattus norvegicus; [1]): 8.5 mg/kg-day
- NOEC (Tagia sp.): 0.256 mg/kg

SMILES: O=C(O)c1cc(-n2ncn(C(F)F)c2=O)c(F)cc1Cl [3-Desmethyl-F8426-benzoic acid]
- NOAEL (Rattus norvegicus; [1]): 5.4 mg/kg-day

SMILES: Cc1nn(-c2cc(CC(Cl)C(=O)O)c(Cl)cc2F)c(=O)n1C(F)F (configuration not stated) [Carfentrazone]
- LC50 (Oncorhynchus mykiss): > 99.2 µg/mL
- LC50 (Tagia sp.): > 1000 mg/kg

SMILES: Cc1nn(-c2cc(C=CC(=O)O)c(Cl)cc2F)c(=O)n1C(F)F
- NOAEL (Rattus norvegicus; [1]): 1 mg/kg-day
- LC50 (Tagia sp.): > 500 mg/kg

SMILES: O=C(O)c1cc(-n2nc(C(=O)O)n(C(F)F)c2=O)c(F)cc1Cl [F8426-dicarboxylic acid]
- LC50 (Oncorhynchus mykiss): > 100 µg/mL
- NOAEL (Rattus norvegicus; [1]): 12.1 mg/kg-day
- NOEC (Tagia sp.): 0.152 mg/kg

SMILES: O=C(O)CCc1cc(-n2ncn(C(F)F)c2=O)c(F)cc1Cl [3-Desmethyl-F8426-propionic acid]
- NOAEL (Rattus norvegicus; short-term, M): 1.4 mg/kg-day
